Patent publication US11724992B2 (Novartis AG, priority 2017, dated 2023)
pIC50: −log10 of the molar value.

Test system: IL-1β production in PMA-differentiated THP-1 cells
Test: IL-1β production in PMA-differentiated THP-1 cells stimulated with gramicidin (hTHP-1 assay, 2% fetal bovine serum; Procedures 1-3)
Assay type: cell-based, human
Settings: hTHP-1 assay containing 2% fetal bovine serum; class symbols; read-out: hTHP-1 IC50 (Average IC50 of compounds in hTHP-1 assay)
In short: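 PMA-differentiated (20 ng/ml, 16-18 h) THP-1 cells in RPMI with 2% FBS, 50,000 cells/well, preincubated 1 h with compound (final 100–0.0017 μM, 0.37% DMSO), then stimulated with 5 μM gramicidin for 2 h. Supernatant IL-1β measured by HTRF.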

First: CC(C)(O)c1ncc(S(N)(=O)=NC(=O)Nc2c3c(cc4c2CC4)CC3)s1 (single isomer, unassigned) [Example 356, (S) or (R)-2-(2-hydroxypropan-2-yl)-N′-(tricyclo[6.2.0.03,6]deca-1,3(6),7-trien-2-ylcarbamoyl)thiazole-5-sulfonimidamide]
Second: CC(C)(O)c1ncc(S(N)(=O)=NC(=O)Nc2c3c(cc4c2C(=O)CC4)CCC3)s1 (single isomer, unassigned) [Example 363, (S) or (R)-2-(2-Hydroxypropan-2-yl)-N′-((3-oxo-1,2,3,5,6,7-hexahydro-s-indacen-4-yl)carbamoyl)thiazole-5-sulfonimidamide]
The pIC50 of the first is higher: 6.00 to 6.70 for the first, 5.30 to 6.00 for the second. The first is the more potent here.

`Cc1sc(S(N)(=O)=NC(=O)Nc2c3c(cc4c2CCC4)CCC3)nc1C(C)(C)O` (single isomer, unassigned) [Example 359, (R) or (S)-N′-((1,2,3,5,6,7-hexahydro-s-indacen-4-yl)carbamoyl)-4-(2-hydroxypropan-2-yl)-5-methylthiazole-2-sulfonimidamide] and `CC(C)(O)c1cc(F)c(S(N)(=O)=NC(=O)Nc2c3c(cc4c2CCC4)CCC3)s1` (single isomer, unassigned) [Example 385, (R) or (S)-3-fluoro-N′-((1,2,3,5,6,7-hexahydro-s-indacen-4-yl)carbamoyl)-5-(2-hydroxypropan-2-yl)thiophene-2-sulfonimidamide] fall in the same range of pIC50: 7.40 to 8.10 for the first, 7.40 to 8.10 for the second.

`Cc1sc(S(N)(=O)=NC(=O)Nc2c3c(cc4c2CCC4)CCC3)nc1C(C)(C)O` (single isomer, unassigned) [Example 360, (S) or (R)-N′-((1,2,3,5,6,7-hexahydro-s-indacen-4-yl)carbamoyl)-4-(2-hydroxypropan-2-yl)-5-methylthiazole-2-sulfonimidamide] and `CC(C)(O)c1cc(F)c(S(N)(=O)=NC(=O)Nc2c3c(cc4c2CCC4)CCC3)s1` (single isomer, unassigned) [Example 386, (S) or (R)-3-fluoro-N′-((1,2,3,5,6,7-hexahydro-s-indacen-4-yl)carbamoyl)-5-(2-hydroxypropan-2-yl)thiophene-2-sulfonimidamide] fall in the same range of pIC50: 6.00 to 6.70 for the first, 6.00 to 6.70 for the second.

Compared with `CN(C)C(C)(C)c1ccc(S(N)(=O)=NC(=O)Nc2c3c(cc4c2CCC4)CCC3)cc1` (single isomer, unassigned) [Example 361, (R) or (S)-4-(2-(dimethylamino)propan-2-yl)-N′-((1,2,3,5,6,7-hexahydro-s-indacen-4-yl)carbamoyl)benzenesulfonimidamide], `COC(C)(C)c1ccc(S(N)(=O)=NC(=O)Nc2c3c(cc4c2CCC4)CCC3)cc1` (single isomer, unassigned) [Example 399, (R) or (S)-N′-((1,2,3,5,6,7-hexahydro-s-indacen-4-yl)carbamoyl)-4-(2-methoxypropan-2-yl)benzenesulfonimidamide] is lower in pIC50: 6.70 to 7.40 for the first, 6.00 to 6.70 for the second.

First: CN(C)C(C)(C)c1ccc(S(N)(=O)=NC(=O)Nc2c3c(cc4c2CCC4)CCC3)cc1 (single isomer, unassigned) [Example 362, (S) or (R)-4-(2-(dimethylamino)propan-2-yl)-N′-((1,2,3,5,6,7-hexahydro-s-indacen-4-yl)carbamoyl)benzenesulfonimidamide]
Second: COC(C)(C)c1ccc(S(N)(=O)=NC(=O)Nc2c3c(cc4c2CCC4)CCC3)cc1 (single isomer, unassigned) [Example 400, (S) or (R)-N′-((1,2,3,5,6,7-hexahydro-s-indacen-4-yl)carbamoyl)-4-(2-methoxypropan-2-yl)benzenesulfonimidamide]
The pIC50 of the first is higher: 5.30 to 6.00 for the first, 4.52 to 5.30 for the second.

First: CC(C)(O)c1ncc(S(N)(=O)=NC(=O)Nc2c3c(cc4c2C(=O)CC4)CCC3)s1 (single isomer, unassigned) [Example 364, (R) or (S)-2-(2-Hydroxypropan-2-yl)-N′-((3-oxo-1,2,3,5,6,7-hexahydro-s-indacen-4-yl)carbamoyl)thiazole-5-sulfonimidamide]
Second: COC(C)(C)c1ncc(S(N)(=O)=NC(=O)Nc2c3c(cc4c2CCC4)CCC3)s1 (single isomer, unassigned) [Example 387, (S) or (R)-N′-((1,2,3,5,6,7-hexahydro-s-indacen-4-yl)carbamoyl)-2-(2-methoxypropan-2-yl)thiazole-5-sulfonimidamide]
The pIC50 of the first is higher: 6.70 to 7.40 for the first, 5.30 to 6.00 for the second. The first is the more potent here.

First: CC(c1ccc(S(N)(=O)=NC(=O)Nc2c3c(cc4c2CCC4)CCC3)cc1)N(C)C (single isomer, unassigned) [Example 371, (S) or (R)-4-(1-(dimethylamino)ethyl)-N′-((1,2,3,5,6,7-hexahydro-s-indacen-4-yl)carbamoyl)benzenesulfonimidamide]
Second: CN(C)Cc1cc(F)c(S(N)(=O)=NC(=O)Nc2c3c(cc4c2CCC4)CCC3)s1 (single isomer, unassigned) [Example 381, (R) or (S)-5-((dimethylamino)methyl)-3-fluoro-N′-((1,2,3,5,6,7-hexahydro-s-indacen-4-yl)carbamoyl)thiophene-2-sulfonimidamide]
The pIC50 of the first is lower: 4.52 to 5.30 for the first, 7.40 to 8.10 for the second.

First: CC(c1ccc(S(N)(=O)=NC(=O)Nc2c3c(cc4c2CCC4)CCC3)cc1)N(C)C (single isomer, unassigned) [Example 372, (R) or (S)-4-(1-(dimethylamino)ethyl)-N′-((1,2,3,5,6,7-hexahydro-s-indacen-4-yl)carbamoyl)benzenesulfonimidamide]
Second: CN(C)Cc1cc(F)c(S(N)(=O)=NC(=O)Nc2c3c(cc4c2CCC4)CCC3)s1 (single isomer, unassigned) [Example 382, (S) or (R)-5-((dimethylamino)methyl)-3-fluoro-N′-((1,2,3,5,6,7-hexahydro-s-indacen-4-yl)carbamoyl)thiophene-2-sulfonimidamide]
The pIC50 of the first is higher: 6.70 to 7.40 for the first, 5.30 to 6.00 for the second. The first is the more potent here.

First: CNS(=O)(=NC(=O)Nc1c2c(cc3c1CCC3)CCC2)c1cnc(C(C)(C)O)s1 (single isomer, unassigned) [Example 373, (R) or (S)-N′-((1,2,3,5,6,7-hexahydro-s-indacen-4-yl)carbamoyl)-2-(2-hydroxypropan-2-yl)-N-methylthiazole-5-sulfonimidamide]
Second: COC(C)(C)c1ncc(S(N)(=O)=NC(=O)Nc2c3c(cc4c2CCC4)CCC3)s1 (single isomer, unassigned) [Example 388, (R) or (S)-N′-((1,2,3,5,6,7-hexahydro-s-indacen-4-yl)carbamoyl)-2-(2-methoxypropan-2-yl)thiazole-5-sulfonimidamide]
The pIC50 of the first is lower: 4.52 to 5.30 for the first, 6.70 to 7.40 for the second. The second is the more potent here.

First: CNS(=O)(=NC(=O)Nc1c2c(cc3c1CCC3)CCC2)c1cnc(C(C)(C)O)s1 (single isomer, unassigned) [Example 374, (S) or (R)-N′-((1,2,3,5,6,7-hexahydro-s-indacen-4-yl)carbamoyl)-2-(2-hydroxypropan-2-yl)-N-methylthiazole-5-sulfonimidamide]
Second: CNCc1ccc(S(N)(=O)=NC(=O)Nc2c3c(cc4c2CCC4)CCC3)c(F)c1 (single isomer, unassigned) [Example 403, (R) or (S)-2-fluoro-N′-((1,2,3,5,6,7-hexahydro-s-indacen-4-yl)carbamoyl)-4-((methylamino)methyl)benzenesulfonimidamide]
The pIC50 of the first is higher: 7.40 to 8.10 for the first, 6.00 to 6.70 for the second. The first is the more potent here.

`CC(c1ccc(S(N)(=O)=NC(=O)Nc2c3c(cc4c2CCC4)CCC3)cc1)N(C)C` (single isomer, unassigned) [Example 375, (S,R) or (S,S) or (R,S) or (R,R)-4-(1-(dimethylamino)ethyl)-N′-((1,2,3,5,6,7-hexahydro-s-indacen-4-yl)carbamoyl)benzenesulfonimidamide] and `CNCc1ccc(S(N)(=O)=NC(=O)Nc2c3c(cc4c2CCC4)CCC3)c(F)c1` (single isomer, unassigned) [Example 404, (S) or (R)-2-fluoro-N′-((1,2,3,5,6,7-hexahydro-s-indacen-4-yl)carbamoyl)-4-((methylamino)methyl)benzenesulfonimidamide] fall in the same range of pIC50: 4.52 to 5.30 for the first, 4.52 to 5.30 for the second.

`CC(c1ccc(S(N)(=O)=NC(=O)Nc2c3c(cc4c2CCC4)CCC3)cc1)N(C)C` (single isomer, unassigned) [Example 376, (S,S) or (S,R) or (R,R) or (R,S)-4-(1-(dimethylamino)ethyl)-N′-((1,2,3,5,6,7-hexahydro-s-indacen-4-yl)carbamoyl)benzenesulfonimidamide] and `CN1CCCC1c1ccc(S(=N)(=O)NC(=O)Nc2c3c(cc4c2CCC4)CCC3)cc1` (single isomer, unassigned) [Example 407, (R,R) or (R,S) or (S,S) or (S,R)-N-((1,2,3,5,6,7-hexahydro-s-indacen-4-yl)carbamoyl)-4-(1-methylpyrrolidin-2-yl)benzenesulfonimidamide] fall in the same range of pIC50: 4.52 to 5.30 for the first, 4.52 to 5.30 for the second.

First: CC(c1ccc(S(N)(=O)=NC(=O)Nc2c3c(cc4c2CCC4)CCC3)cc1)N(C)C (single isomer, unassigned) [Example 377, (R,R) or (R,S) or (S,S) or (S,R)-4-(1-(dimethylamino)ethyl)-N′-((1,2,3,5,6,7-hexahydro-s-indacen-4-yl)carbamoyl)benzenesulfonimidamide]
Second: CN1CCCC1c1ccc(S(=N)(=O)NC(=O)Nc2c3c(cc4c2CCC4)CCC3)cc1 (single isomer, unassigned) [Example 408, (S,R) or (S,S) or (R,S) or (R,R)-N-((1,2,3,5,6,7-hexahydro-s-indacen-4-yl)carbamoyl)-4-(1-methylpyrrolidin-2-yl)benzenesulfonimidamide]
The pIC50 of the first is higher: 6.70 to 7.40 for the first, 5.30 to 6.00 for the second. The first is the more potent here.

With `CC(c1ccc(S(N)(=O)=NC(=O)Nc2c3c(cc4c2CCC4)CCC3)cc1)N(C)C` (single isomer, unassigned) [Example 378, (R,S) or (R,R) or (S,R) or (S,S)-4-(1-(dimethylamino)ethyl)-N′-((1,2,3,5,6,7-hexahydro-s-indacen-4-yl)carbamoyl)benzenesulfonimidamide] the pIC50 was 6.00 to 6.70.
